ChEMBL document CHEMBL6120942 (J Med Chem, 2024)
pIC50: −log10 of the molar value. In brackets after ≈: the same amount, converted by molar mass. Activity calls are given as the source filed them. No cut-off for these calls is given here.

Key:
[1] = Unbound clearance in male Beagle dog at 1 mg/kg, po or 1 mg/kg, iv measured upto 24 hrs by LC-MS/MS analysis; type: ADME, organism-based, Canis lupus familiaris; conditions: in vivo
[2] = Volume of distribution at steady state in male Wistar Han rat at 1 mg/kg, po or 1 mg/kg, iv measured upto 24 hrs by LC-MS/MS analysis; type: ADME, organism-based; conditions: in vivo
[3] = Half life in male Beagle dog at 1 mg/kg, iv measured upto 24 hrs by LC-MS/MS analysis; type: ADME, organism-based, Canis lupus familiaris; conditions: in vivo
[4] = Unbound clearance in male Wistar Han rat at 1 mg/kg, po or 1 mg/kg, iv measured upto 24 hrs by LC-MS/MS analysis; type: ADME, organism-based; conditions: in vivo
[5] = Volume of distribution at steady state in male Beagle dog at 1 mg/kg, po or 1 mg/kg, iv measured upto 24 hrs by LC-MS/MS analysis; type: ADME, organism-based, Canis lupus familiaris; conditions: in vivo
[6] = Oral bioavailability in male Beagle dog at 1 mg/kg measured upto 24 hrs by LC-MS/MS analysis; type: ADME, organism-based, Canis lupus familiaris; conditions: in vivo
[7] = Half life in male Wistar Han rat at 1 mg/kg, iv measured upto 24 hrs by LC-MS/MS analysis; type: ADME, organism-based; conditions: in vivo
[8] = Oral bioavailability in male Wistar Han rat at 1 mg/kg measured upto 24 hrs by LC-MS/MS analysis; type: ADME, organism-based; conditions: in vivo
physchem = conditions: octanol/water, pH 7.4, logD
Description: (§1) Distribution coefficient, logD of compound at pH 7.4 by HPLC analysis

[9] = Metabolic stability in Wistar rat liver Microsome assessed as clearance measured upto 60 mins by LC-MS/MS analysis; type: ADME; conditions: microsomes, 1 h
[10] = target: T1, Voltage-gated inwardly rectifying potassium channel KCNH2 (Homo sapiens, UniProt Q12809); test: Inhibition of hERG by Qpatch clamp assay; type: toxicity
T1 sequence (Q12809 whole entry): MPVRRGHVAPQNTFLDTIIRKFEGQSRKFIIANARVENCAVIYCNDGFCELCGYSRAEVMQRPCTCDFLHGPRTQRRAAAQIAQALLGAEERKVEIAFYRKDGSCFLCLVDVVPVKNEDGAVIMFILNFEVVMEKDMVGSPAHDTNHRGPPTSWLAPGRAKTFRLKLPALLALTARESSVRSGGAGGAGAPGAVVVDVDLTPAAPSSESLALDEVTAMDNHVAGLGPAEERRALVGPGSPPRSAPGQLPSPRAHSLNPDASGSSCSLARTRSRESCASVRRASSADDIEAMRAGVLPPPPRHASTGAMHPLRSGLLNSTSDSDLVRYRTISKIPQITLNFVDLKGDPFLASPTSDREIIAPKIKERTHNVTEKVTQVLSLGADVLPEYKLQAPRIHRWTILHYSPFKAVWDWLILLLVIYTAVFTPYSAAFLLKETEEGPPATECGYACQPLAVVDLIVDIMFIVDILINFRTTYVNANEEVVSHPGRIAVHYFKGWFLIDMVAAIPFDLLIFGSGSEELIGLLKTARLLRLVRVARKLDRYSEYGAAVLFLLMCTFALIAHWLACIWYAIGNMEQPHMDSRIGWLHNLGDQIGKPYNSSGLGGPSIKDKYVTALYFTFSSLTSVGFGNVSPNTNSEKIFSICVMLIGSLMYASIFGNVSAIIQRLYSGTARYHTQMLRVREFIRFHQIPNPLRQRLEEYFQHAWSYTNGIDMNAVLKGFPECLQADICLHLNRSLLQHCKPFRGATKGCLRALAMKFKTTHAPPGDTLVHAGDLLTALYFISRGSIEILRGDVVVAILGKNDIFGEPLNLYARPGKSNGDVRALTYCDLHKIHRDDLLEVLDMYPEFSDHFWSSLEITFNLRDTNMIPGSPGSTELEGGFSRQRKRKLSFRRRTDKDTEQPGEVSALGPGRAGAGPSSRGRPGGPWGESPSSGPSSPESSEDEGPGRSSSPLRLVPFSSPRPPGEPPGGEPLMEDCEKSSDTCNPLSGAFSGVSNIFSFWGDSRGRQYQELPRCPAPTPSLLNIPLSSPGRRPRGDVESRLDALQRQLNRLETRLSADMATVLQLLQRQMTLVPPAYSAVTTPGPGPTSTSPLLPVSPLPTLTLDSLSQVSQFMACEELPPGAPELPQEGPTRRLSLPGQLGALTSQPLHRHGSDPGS

[11] = Metabolic stability in human microsome assessed as clearance measured upto 60 mins by LC-MS/MS analysis; type: ADME; conditions: microsomes, 1 h
[12] = Unbound clearance in Gottingen minipig at 1 mg/kg, po or 1 mg/kg, iv measured upto 24 hrs by LC-MS/MS analysis; type: ADME, organism-based, Sus scrofa; conditions: pig, in vivo
[13] = Permeability across apical to basolateral side in MDCK cells; type: ADME, cell-based, Canis lupus familiaris; conditions: dog, read-out: permeability
[14] = Kinetic solubility of compound; type: physicochemical; conditions: read-out: Kinetic_solubility
[15] = Volume of distribution at steady state in Gottingen minipig at 1 mg/kg, po or 1 mg/kg, iv measured upto 24 hrs by LC-MS/MS analysis; type: ADME, organism-based, Sus scrofa; conditions: pig, in vivo
[16] = Oral bioavailability in Gottingen minipig at 1 mg/kg measured upto 24 hrs by LC-MS/MS analysis; type: ADME, organism-based, Sus scrofa; conditions: pig, in vivo
in vitro = conditions: dog, MDCK-MDR1, permeability
Description: (§2) Permeability across apical to basolateral side in dog MDCK-MDR1 cells measured for 60 mins by LC-MS/MS analysis

[17] = Metabolic stability in Wistar rat Hepatocyte assessed as clearance measured upto 60 mins by LC-MS/MS analysis; type: ADME, cell-based; conditions: hepatocytes, 1 h
[18] = target: T1, Voltage-gated inwardly rectifying potassium channel KCNH2; test: Inhibition of hERG by patch clamp assay; type: toxicity
[19] = Metabolic stability in human Hepatocyte assessed as clearance measured upto 60 mins by LC-MS/MS analysis; type: ADME, cell-based; conditions: hepatocytes, 1 h
[20] = Half life in Gottingen minipig at 1 mg/kg, iv measured upto 24 hrs by LC-MS/MS analysis; type: ADME, organism-based, Sus scrofa; conditions: pig, in vivo
Integrin alpha-V/beta-3 = Integrin alpha-V/beta-3 (Homo sapiens, UniProt P05106+P06756); test: Binding affinity to Integrin alphaVbeta3 (unknown origin); type: protein-complex assay
Integrin alpha-V/beta-1 = Integrin alpha-V/beta-1 (Homo sapiens, UniProt P05556+P06756); test: Binding affinity to Integrin alphaVbeta1 (unknown origin); type: protein-complex assay
Integrin alpha-V/beta-8 = Integrin alpha-V/beta-8 (Homo sapiens, UniProt P06756+P26012); test: Binding affinity to Integrin alphaVbeta8 (unknown origin); type: protein-complex assay
Chain of Integrin alpha-V/beta-8 (P06756 31-889 limits assumed): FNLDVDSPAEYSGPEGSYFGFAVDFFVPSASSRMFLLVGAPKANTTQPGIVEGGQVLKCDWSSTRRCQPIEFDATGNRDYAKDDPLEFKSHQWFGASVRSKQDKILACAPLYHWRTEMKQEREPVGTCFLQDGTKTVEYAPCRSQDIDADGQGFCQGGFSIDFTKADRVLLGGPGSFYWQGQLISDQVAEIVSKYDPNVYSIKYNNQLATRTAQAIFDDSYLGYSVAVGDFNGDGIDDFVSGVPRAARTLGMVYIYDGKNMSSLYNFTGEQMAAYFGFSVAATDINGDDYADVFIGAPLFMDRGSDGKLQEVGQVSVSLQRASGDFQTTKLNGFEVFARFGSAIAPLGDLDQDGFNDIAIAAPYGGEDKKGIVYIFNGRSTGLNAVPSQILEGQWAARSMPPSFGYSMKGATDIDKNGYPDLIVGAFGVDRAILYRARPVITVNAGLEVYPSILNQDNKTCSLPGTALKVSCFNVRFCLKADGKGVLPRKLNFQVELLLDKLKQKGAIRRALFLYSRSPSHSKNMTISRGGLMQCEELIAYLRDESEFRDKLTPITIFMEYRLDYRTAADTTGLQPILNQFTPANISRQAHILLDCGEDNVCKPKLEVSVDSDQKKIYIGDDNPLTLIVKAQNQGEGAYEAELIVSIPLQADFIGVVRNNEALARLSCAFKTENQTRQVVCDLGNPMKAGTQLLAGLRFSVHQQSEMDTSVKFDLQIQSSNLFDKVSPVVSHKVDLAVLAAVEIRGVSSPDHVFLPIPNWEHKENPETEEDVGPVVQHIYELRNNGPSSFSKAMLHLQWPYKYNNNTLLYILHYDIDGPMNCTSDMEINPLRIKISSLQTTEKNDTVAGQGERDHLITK
Chain of Integrin alpha-V/beta-8 (P06756 891-1048 limits assumed): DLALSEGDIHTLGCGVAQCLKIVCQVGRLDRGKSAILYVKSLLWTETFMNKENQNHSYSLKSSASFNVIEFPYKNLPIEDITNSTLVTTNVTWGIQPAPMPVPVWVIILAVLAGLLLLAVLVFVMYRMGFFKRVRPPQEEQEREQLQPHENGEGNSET
Chain of Integrin alpha-V/beta-8 (P26012 43-769 limits assumed): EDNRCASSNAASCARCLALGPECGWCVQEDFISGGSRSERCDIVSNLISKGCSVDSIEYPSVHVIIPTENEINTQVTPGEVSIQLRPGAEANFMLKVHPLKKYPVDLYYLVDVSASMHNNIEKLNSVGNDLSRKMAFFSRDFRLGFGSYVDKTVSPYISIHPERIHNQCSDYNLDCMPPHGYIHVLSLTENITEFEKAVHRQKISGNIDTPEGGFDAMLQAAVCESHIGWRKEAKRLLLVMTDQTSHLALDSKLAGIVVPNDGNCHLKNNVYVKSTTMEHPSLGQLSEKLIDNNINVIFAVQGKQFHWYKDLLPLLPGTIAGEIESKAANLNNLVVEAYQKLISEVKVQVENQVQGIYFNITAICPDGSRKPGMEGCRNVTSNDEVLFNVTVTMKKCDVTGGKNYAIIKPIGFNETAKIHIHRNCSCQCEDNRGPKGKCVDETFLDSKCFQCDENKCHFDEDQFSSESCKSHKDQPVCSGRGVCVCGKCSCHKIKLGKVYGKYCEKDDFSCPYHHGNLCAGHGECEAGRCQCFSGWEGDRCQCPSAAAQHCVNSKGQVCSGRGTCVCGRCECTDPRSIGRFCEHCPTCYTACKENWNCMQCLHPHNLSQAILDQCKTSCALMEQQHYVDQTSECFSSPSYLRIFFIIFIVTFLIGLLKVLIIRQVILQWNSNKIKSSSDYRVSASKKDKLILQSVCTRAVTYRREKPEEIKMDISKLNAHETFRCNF

Integrin alpha-V/beta-5 = Integrin alpha-V/beta-5 (Homo sapiens, UniProt P06756+P18084); test: Binding affinity to Integrin alphaVbeta5 (unknown origin); type: protein-complex assay
Chain of Integrin alpha-V/beta-5 (P06756 31-889 limits assumed): as the sequence (P06756 31-889 limits assumed) above
Chain of Integrin alpha-V/beta-5 (P06756 891-1048 limits assumed): as the sequence (P06756 891-1048 limits assumed) above
Chain of Integrin alpha-V/beta-5 (P18084 24-799 limits assumed): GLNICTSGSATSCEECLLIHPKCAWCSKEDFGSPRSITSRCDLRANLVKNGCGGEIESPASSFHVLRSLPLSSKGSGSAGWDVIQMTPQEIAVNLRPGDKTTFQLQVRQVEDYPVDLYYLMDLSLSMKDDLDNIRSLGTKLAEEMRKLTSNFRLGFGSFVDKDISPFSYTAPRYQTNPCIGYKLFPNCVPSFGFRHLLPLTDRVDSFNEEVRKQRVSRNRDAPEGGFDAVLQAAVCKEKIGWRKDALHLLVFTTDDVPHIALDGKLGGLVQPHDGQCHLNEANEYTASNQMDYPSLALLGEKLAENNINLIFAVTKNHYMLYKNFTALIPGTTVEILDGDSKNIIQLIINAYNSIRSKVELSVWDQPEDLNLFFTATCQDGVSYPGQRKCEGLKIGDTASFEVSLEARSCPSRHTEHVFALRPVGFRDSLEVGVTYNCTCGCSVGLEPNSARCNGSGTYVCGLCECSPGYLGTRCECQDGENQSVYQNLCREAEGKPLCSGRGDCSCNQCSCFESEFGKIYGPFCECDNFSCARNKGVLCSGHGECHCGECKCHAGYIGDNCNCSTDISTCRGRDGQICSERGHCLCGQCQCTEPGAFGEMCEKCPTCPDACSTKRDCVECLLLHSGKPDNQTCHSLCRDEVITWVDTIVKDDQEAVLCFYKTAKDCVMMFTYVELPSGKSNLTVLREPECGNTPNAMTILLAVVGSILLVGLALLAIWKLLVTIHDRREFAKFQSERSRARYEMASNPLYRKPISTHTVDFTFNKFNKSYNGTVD

Integrin alpha-V/beta-6 = Integrin alpha-V/beta-6 (Homo sapiens, UniProt P06756+P18564); test: Binding affinity to Integrin alphaVbeta6 (unknown origin); type: protein-complex assay
Chain of Integrin alpha-V/beta-6 (P06756 31-889 limits assumed): as the sequence (P06756 31-889 limits assumed) above
Chain of Integrin alpha-V/beta-6 (P06756 891-1048 limits assumed): as the sequence (P06756 891-1048 limits assumed) above
Chain of Integrin alpha-V/beta-6 (P18564 22-788 limits assumed): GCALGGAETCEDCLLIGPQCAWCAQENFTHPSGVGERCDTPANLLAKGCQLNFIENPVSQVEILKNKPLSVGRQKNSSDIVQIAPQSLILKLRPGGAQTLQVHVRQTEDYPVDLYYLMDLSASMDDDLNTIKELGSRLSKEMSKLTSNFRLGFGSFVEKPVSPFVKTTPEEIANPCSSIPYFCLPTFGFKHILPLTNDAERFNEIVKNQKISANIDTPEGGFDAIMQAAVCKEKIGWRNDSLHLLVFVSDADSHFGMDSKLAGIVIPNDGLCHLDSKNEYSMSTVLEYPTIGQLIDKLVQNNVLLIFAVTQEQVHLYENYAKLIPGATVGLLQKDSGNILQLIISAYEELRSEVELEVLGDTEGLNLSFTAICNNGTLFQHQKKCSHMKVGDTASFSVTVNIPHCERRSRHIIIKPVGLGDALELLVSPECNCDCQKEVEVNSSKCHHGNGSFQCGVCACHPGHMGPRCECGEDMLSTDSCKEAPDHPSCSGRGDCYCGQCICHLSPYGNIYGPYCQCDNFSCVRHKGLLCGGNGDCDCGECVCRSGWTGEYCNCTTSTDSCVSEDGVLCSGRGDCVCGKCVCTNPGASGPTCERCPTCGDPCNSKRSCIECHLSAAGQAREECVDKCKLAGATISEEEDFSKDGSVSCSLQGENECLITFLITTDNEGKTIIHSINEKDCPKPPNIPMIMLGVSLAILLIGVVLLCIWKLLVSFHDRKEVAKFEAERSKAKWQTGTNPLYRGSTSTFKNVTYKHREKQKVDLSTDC

[21] = AUC in rat at 2 mg/kg, po; type: ADME, organism-based; conditions: in vivo
[22] = dog, mdck-mdr1, 1 h
Description: as §2

[23] = octanol/water, pH 7.4
Description: as §1

[24] = Oral bioavailability in male Wistar Han rat at 2 mg/kg measured upto 24 hrs by LC-MS/MS analysis; type: ADME, organism-based; conditions: in vivo
Mus musculus [25] = test: Antifibrotic activity against bleomycin-induced mouse model of pulmonary fibrosis at 2 to 15 mg/kg, po; type: functional, organism-based; conditions: dose 2-15 mg/kg
Mus musculus [26] = test: Antifibrotic activity against bleomycin-induced mouse model of pulmonary fibrosis at 2 to 10 mg/kg, po; type: functional, organism-based; conditions: dose 2-10 mg/kg
[27] = Volume of distribution at steady state in male Wistar Han rat at 2 mg/kg, po measured upto 24 hrs by LC-MS/MS analysis; type: ADME, organism-based; conditions: in vivo

Row | SMILES | Vdss [2] [L/kg] | CL free [4] [mL/min/kg] | half-life [7] [h] | bioavailability [8] [%] | logD (physchem) | CLH [11] [mL/min/g] | Papp A→B [13] [×10⁻⁶ cm/s] | solubility kinetic [14] [µg/mL] | Papp A→B at 1 h (in vitro) [×10⁻⁶ cm/s] | pIC50 (Integrin alpha-V/beta-6) | also measured
1 | Cc1cc(C)n(-c2cccc([C@H](CC(=O)O)CN3CC[C@@H](CCc4ccc5c(n4)NCCC5)C3)c2)n1.Cl [GSK-3008348] | 2.1 | 189 | 0.8 | < 2 | – | – | – | – | – | – | CL free [1]: 124 mL/min/kg; half-life [3]: 3.6 h; Vdss [5]: 3.6 L/kg; bioavailability [6]: 30%
2 | O=C(O)C[C@H](CN1CC[C@@](F)(CCc2ccc3c(n2)NCCC3)C1)c1cccc(N2CCOCC2)c1 | 4.1 | 206 | 1.9 | 77 | 2.68 | < 0.46 | 8.7 | 258 (≈ 520 µM) | 21.8 | – | CLH [9]: < 0.49 mL/min/g; CL free [1]: 18 mL/min/kg; half-life [3]: 6.1 h; Vdss [5]: 2.5 L/kg; pIC50 [10]: < 5.00; CL free [12]: 58 mL/min/kg; Vdss [15]: 2.5 L/kg; bioavailability [16]: 34%; CLH [17]: < 1.04 mL/min/g; bioavailability [6]: 74%; pIC50 [18]: < 5.00; CLH [19]: < 0.62 mL/min/g; half-life [20]: 3 h
3 | O=C(O)C[C@H](CN1CC[C@@](F)(CCc2ccc3c(n2)NCCC3)C1)c1cccc(O[C@@H]2CCOC2)c1 | 3.3 | 88 | 3.1 | 90 | 2.76 | < 0.4 | 7.8 | 232 (≈ 466 µM) | 20.5 | – | CLH [9]: < 0.46 mL/min/g; pIC50 (Integrin alpha-V/beta-3): 7.20; pIC50 (Integrin alpha-V/beta-1): 6.80; CL free [12]: 34 mL/min/kg; Vdss [15]: 1.5 L/kg; bioavailability [16]: 66%; CLH [17]: 1.4 mL/min/g; CLH [19]: < 0.21 mL/min/g; half-life [20]: 1.7 h
4 | Cc1cc(C)n(-c2cccc([C@H](CC(=O)O)CN3CC[C@@](F)(CCc4ccc5c(n4)NCCC5)C3)c2)n1 | – | – | – | – | 3.3 | < 0.53 | 17.7 | 262 (≈ 518 µM) | 33 | 8.00 | pIC50 (Integrin alpha-V/beta-8): 7.70; CLH [9]: 0.91 mL/min/g; pIC50 (Integrin alpha-V/beta-5): 6.70; pIC50 (Integrin alpha-V/beta-3): 6.50; CLH [17]: 13.75 mL/min/g; CLH [19]: < 0.86 mL/min/g
5 | COCCOc1cccc([C@H](CC(=O)O)CN2CC[C@](F)(CCc3ccc4c(n3)NCCC4)C2)c1 | – | – | – | – | 2.89 | – | 1.9 | – | – | – | AUC [21]: 101 ng·h/mL
6 | O=C(O)C[C@H](CN1CC(CCc2ccc3c(n2)NCCC3)CC(F)(F)C1)c1cccc(N2CCOCC2)c1 (stereo in doubt; 3b) | – | – | – | – | – | – | – | – | – | 7.10 | permeability [22]: 56 ×10⁻⁶ cm/s; logD [23]: 4.33
7 | O=C(O)C[C@H](CN1CC[C@@](F)(CCc2ccc3c(n2)NCCC3)C1)c1cccc(O[C@H]2CCOC2)c1 | 1.9 | 58 | 2.8 | 61 | 2.84 | < 0.4 | 7.6 | 194 (≈ 390 µM) | 26 | – | CL free [12]: 26 mL/min/kg; Vdss [15]: 1.4 L/kg; bioavailability [16]: 63%; half-life [20]: 3.4 h
8 | O=C(O)C[C@H](CN1CCC(F)(F)C(CCc2ccc3c(n2)NCCC3)C1)c1cccc(N2CCOCC2)c1 (stereo in doubt; 2a) | – | – | – | – | 4.02 | – | – | – | 37 | 5.70 | –
9 | O=C(O)C[C@H](CN1CC[C@@](F)(CCc2ccc3c(n2)NCCC3)C1)c1cccc(OC2CCOCC2)c1 | 4.9 | 182 | 3.5 | 50 | 3.18 | < 0.4 | 12.1 | 209 (≈ 408 µM) | 17.2 | – | pIC50 (Integrin alpha-V/beta-8): 7.90; CLH [9]: < 0.46 mL/min/g; pIC50 (Integrin alpha-V/beta-5): 7.50; CLH [17]: 1.6 mL/min/g; CLH [19]: < 0.21 mL/min/g
10 | O=C(O)C[C@H](CN1CCCC(F)(CCc2ccc3c(n2)NCCC3)C1)c1cccc(N2CCOCC2)c1 (stereo in doubt; 4b) | – | – | – | – | – | – | – | – | – | 6.70 | permeability [22]: 38 ×10⁻⁶ cm/s
11 | COCCOc1cccc([C@H](CC(=O)O)CN2CC[C@@](F)(CCc3ccc4c(n3)NCCC4)C2)c1 | – | – | – | – | 2.93 | – | 8.7 | 127 (≈ 262 µM) | 14.6 | – | AUC [21]: 779 ng·h/mL; bioavailability [24]: 93%; Vdss [5]: 1.4 L/kg; Vdss [15]: 0.9 L/kg; bioavailability [16]: 84%; bioavailability [6]: 104%; Activity (Mus musculus [25]): Active; Activity (Mus musculus [26]): Active; Vdss [27]: 3.6 L/kg
12 | O=C(O)C[C@H](CN1CCCC(F)(CCc2ccc3c(n2)NCCC3)C1)c1cccc(N2CCOCC2)c1 (stereo in doubt; 4a) | – | – | – | – | 2.68 | – | – | – | 21.6 | 7.30 | –
13 | O=C(O)C[C@H](CN1CCC(F)(F)C(CCc2ccc3c(n2)NCCC3)C1)c1cccc(N2CCOCC2)c1 (stereo in doubt; 2b) | – | – | – | – | – | – | – | – | – | 6.30 | permeability [22]: 56 ×10⁻⁶ cm/s; logD [23]: 4.62
14 | O=C(O)C[C@H](CN1CC(CCc2ccc3c(n2)NCCC3)CC(F)(F)C1)c1cccc(N2CCOCC2)c1 (stereo in doubt; 3a) | – | – | – | – | 3.46 | – | – | – | 36 | 6.20 | –
15 | O=C(O)C[C@H](CN1CC[C@@H](CCc2ccc3c(n2)NCCC3)C1)c1cccc(N2CCOCC2)c1 | – | – | – | – | 2.27 | – | – | – | 2.7 | – | –
16 | O=C(O)C[C@H](CN1CC[C@](F)(CCc2ccc3c(n2)NCCC3)C1)c1cccc(N2CCOCC2)c1 | – | – | – | – | 2.66 | – | – | – | 9.3 | – | pIC50 [10]: < 5.00; pIC50 [18]: < 5.00
